Results reported in paper PMC11939955, “Enhancing Antimicrobial Peptides from Frog Skin: A Rational Approach” (Biomolecules, 2025).
Values joined by “and” are separate entries in the source; they are usually repeats but may differ in a detail not shown here. Identical values can stand only once. Where no end group is shown, it is not given here.

Legend:
[1] = tested on: Escherichia coli (ATCC 25922); format: cell-based
Description: (§1) Hylin-Pul3 and six derivatives (dHP3-31, dHP3-50, dHP3-50.137, dHP3-50.190, dHP3-84, and dHP3-84.39) were tested against two Gram-positive bacteria, Staphylococcus aureus (ATCC 25923) and Streptococcus mutans (ATCC 25175), as well as three Gram-negative bacteria: Escherichia coli (ATCC 25922), Klebsiella pneumoniae (ATCC 13883), and Acinetobacter baumannii (ATCC 13304). The minimal inhibitory concentration (MIC) was determined using the microbroth dilution.
(§2) The peptides were serially diluted in concentrations ranging 128 to 0.25 μM, with gentamicin serving as a positive control, which was serially diluted to concentrations of 20 to 0.04 μM. Bacterial cultures were prepared in Mueller–Hinton (MH) medium to achieve a final inoculum concentration of 5 × 10^5 CFU/mL. […] All tests were performed in duplicate and repeated across three independent experiments.

[2] = tested on: Acinetobacter baumannii (ATCC 13304); format: cell-based
Description: as §1, §2

[3] = tested on: Staphylococcus aureus (ATCC 25923); format: cell-based
Description: as §1, §2

[4] = tested on: Klebsiella pneumoniae (ATCC 13883); format: cell-based; details: ATCC 13883
Description: as §1, §2

[5] = tested on: Streptococcus mutans (ATCC 25175); format: cell-based
Description: as §1, §2

E. coli (ATCC 25922) = test: Synergistic checkerboard assay; format: cell-based, Escherichia coli
Description: Briefly, working solutions of the peptides were prepared and serially diluted by half across the rows and columns of a microplate, ensuring that each well contained a unique combination of peptide concentrations. The starting concentrations corresponded to the respective MIC values of each peptide, followed by two-fold serial dilutions.
Each well was filled with 50 µL of the peptide solution (individual or combined) and 50 µL of a bacterial suspension (1 × 10^6 CFU/mL), resulting in a final bacterial concentration of 5 × 10^5 CFU/mL. The individual peptide solutions served as positive controls, while the MH medium was employed as a negative control. The microplates were incubated at 37 °C overnight. The test was performed in three independent experiments. The fractional inhibitory concentrations index (ΣFIC) was calculated using the following equation: (1) ∑FIC =MIC(A) in combination/MIC(A) alone+MIC(B) in combination /MIC(B) alone
The FIC index (ΣFIC) was interpreted as follows: ΣFIC ≤ 0.5 indicated synergy; 0.5 < ΣFIC ≤ 4 indicated no effect; and 4 < ΣFIC indicated antagonism.

[6] = Carboxyfluorescein (CF) release from LUVs; set-up: species or system E. coli; details: at the lowest peptide concentrations (8, 32, 50, 64 μM tested); 10 min, ex 490 nm/em 517 nm, duplicate
Description: Large unilamellar vesicles (LUVs) were prepared with the total lipid extract of E. coli (Avanti Polar Lipids). For this, an aliquot of 1 mg of lipids dissolved in chloroform was deposited into a glass tube and dried by evaporation with nitrogen (N2). The glass tube underwent vacuum treatment to eliminate any residual solvent traces. The lipids were then hydrated in 200 μL of a 5,6-carboxyfluorescein (CF) solution (Sigma-Aldrich) at a concentration of 49 mM, pH 8, and 431 mOsm/kgH2O through nine cycles of heating (70 °C for 30 s), vortexing (1 min), and freezing (ice bath for 30 s). A polycarbonate filter with a pore size of 100 nm was employed to standardize the liposome size. Twenty-one extrusion cycles were conducted at 40 °C through the filter, resulting in LUVs with an average diameter of 100 nm. Size exclusion chromatography (Sephadex G-25) was utilized to remove the CF outside of the LUVs.
The fluorescence spectra of the CF-filled LUVs were measured using a FluoroMax3 Jobin Yvon spectrofluorometer (Horiba Jobin Yvon; Edison, NJ, USA). A 200 μL aliquot of the LUVs containing 100 μM CF was utilized for the experiment. Excitation was performed over a wavelength range of 400 to 540 nm, with the emission recorded at 517 nm. The peptides were added at various final concentrations (8, 32, 50, and 64 μM), and the fluorescence was assessed 10 min after each addition. […]

ABTS assay = details: peptides 0.05, 0.025, 0.0125 mg/mL, 1 h dark, absorbance 734 nm, triplicate
Description: The 2,2-azinobis-3-ethylbenzothiazoline-6-sulfonic acid (ABTS^+) free radical-scavenging activity was determined following the method in [38]. The ABTS⁺ radical cation was generated by diluting a 245 mM ammonium persulfate (APS) solution at a ratio of 1:100 with a 7 mM ABTS solution, followed by overnight incubation in the dark at room temperature. The ABTS^+ solution was then diluted with water to obtain an absorbance of 0.70 at 734 nm immediately before the assay using a Shimadzu 1240 UV-visible spectrophotometer (Kyoto, Japan). The peptides were dissolved in PBS, and 10 µL aliquots of each peptide solution were incubated with 190 µL of the ABTS^+ solution in triplicate, at final concentrations of 0.05, 0.025, and 0.0125 mg/mL. After a 1 h incubation in the dark, the absorbance was measured at 734 nm. The radical-scavenging activity was quantified against a standard curve, with the results expressed as milligrams of Trolox equivalents per milligram of peptide.

[7] = DPPH radical-scavenging activity; details: peptides 0.1, 0.05, 0.025 mg/mL, 30 min dark 25 °C, absorbance 515 nm, triplicate
Description: A stock solution of 60 µM 1,1-diphenyl-2-picrylhydrazyl (DPPH) was prepared in ethanol, with its absorbance adjusted to 0.7 at 515 nm immediately before the assay using a Shimadzu 1240 UV–visible spectrophotometer (Kyoto, Japan). The peptides were dissolved in PBS, and 20 µL aliquots of each peptide solution were incubated with 180 µL of the ethanolic DPPH solution in triplicate, at final concentrations of 0.1, 0.05, and 0.025 mg/mL. For the negative control, 20 µL of PBS was mixed with 180 µL of the DPPH solution, while 20 µL of Trolox (6-hydroxy-2,5,7,8-tetramethylchroman-2-carboxylic acid) served as the positive control and standard. The mixtures were incubated in the dark at 25 °C for 30 min, after which, the absorbance was measured at 515 nm. The reduction in absorbance, indicative of DPPH-scavenging activity, was compared to a standard curve. The results were expressed as milligrams of Trolox equivalents per milligram of peptide (mg Trolox equivalents/mg of peptide).

[8] = tested on: Human primary fibroblasts; format: cell-based; details: MTT, 24 h
Description: Human primary fibroblasts were kindly provided by CellSeq Solutions (Belo Horizonte, Brazil) and cultured in DMEM (Dulbecco’s Modified Eagle’s Medium, Gibco, Waltham, MA, USA) supplemented with 10% (v/v) fetal bovine serum (FBS; Gibco, Waltham, MA, USA) and a 1000 U/mL penicillin/streptomycin solution (Gibco, Waltham, MA, USA). The cells were maintained at 5% CO2, 37 °C, and 95% humidity.
To investigate the impact of the antimicrobial peptides hylin-Pul3, dHP3-31, dHP3-50, dHP3-50.137, dHP3-50.190, dHP3-84, and dHP3-84.39 on primary human fibroblast proliferation and viability, the 3-(4,5-dimethylthiazol-2-yl)-2,5-diphenyl tetrazolium bromide (MTT) metabolization assay (Sigma Aldrich; Misuri, USA) was performed. Human fibroblast cells (7 × 10^3 cells/well) were plated in a 96-well plate and treated with 0.5, 1, 5, 10, 25, 50, and 100 μg/mL of each peptide for 24 h. After this period, the cells were incubated with 5 mg/mL MTT for 4 h. The formazan crystals formed were solubilized by adding dimethyl sulfoxide (DMSO). The absorbance was measured at 570 nm using a spectrophotometer (Multiskan™ FC Microplate Photometer; Thermo Fisher Scientific, Waltham, MA, USA).

[9] = versus parent peptide hylin-Pul3

Substance | Antimicrobial Activity (MIC) E. coli ATCC 25922 [1] [µM] | Reduction in MIC of up to (Gram-negative strains) compared to hylin-Pul3 ([1]; strain not given, largest reduction) | Reduction in MIC against E. coli compared to hylin-Pul3 [1, 9] [fold] | Antimicrobial Activity (MIC) A. baumannii ATCC 13304 [2] [µM] | Reduction in MIC against A. baumannii compared to hylin-Pul3 [2, 9] [fold] | Antimicrobial Activity (MIC) S. aureus ATCC 25923 [3] [µM] | Antimicrobial Activity (MIC) K. pneumoniae ATCC 13883 [4] [µM] | Antimicrobial Activity (MIC) S. mutans ATCC 25175 [5] [µM] | Synergistic Activity, FIC Index (ΣFIC) (E. coli (ATCC 25922); combination of dHP3-84 and dHP3-50.137, E. coli ATCC 25922, 5 × 10^5 CFU/mL, 37 °C overnight, three independent experiments, ΣFIC ≤ 0.5 = synergy) | Improvement of combined activity compared to each peptide individually (E. coli (ATCC 25922); dHP3-84 + dHP3-50.137, E. coli) [fold] | CF release from LUVs [6] [%] | Antioxidant activity ABTS (ABTS assay) [mg Trolox/mg] | Antioxidant activity DPPH [7] | Concentration at which fibroblast viability increased (proliferative effect) [8]
RAGALWPAIRGAIKKIIKK-NH2 [dHP3-50.137] | 4.0 ± 0.0 | up to 8 fold | 4 | 8.0 ± 0.0 | 4 | 64.0 ± 0.0 | 53.3 ± 16.5 | 32.0 ± 0.0 | 0.5 | 2 | 50 | 0.08 | did not reveal significant activity | –
RRGKLIPRLAKAIGRLIRK-OH [dHP3-84.39] | 6.6 ± 4.8 | – | – | 16.0 ± 0.0 | – | 26.6 ± 8.3 | 64.0 ± 0.0 | >64 | – | – | 50 | – | – | 5 μg/mL and 2.3 µM
